{"source": "patent US7078554B2", "about": "“Detection of glucose in solutions also containing an alpha-hydroxy acid or a beta-diketone” (Sensors for Medicine and Science, Inc., priority 2001, dated 2006)", "key": {"[1]": {"assay": "Effect of lactate in solution on the dose response effect of glucose on fluorescence", "conditions": "75 μM in PBS, 0–10 mM glucose with 0, 2 or 5 mM lactate, excitation 365 nm (FIG. 3)", "method": "Spectra were recorded using a Shimadzu RF-5301 spectrafluorometer with excitation @365 nm; excitation slits at 1.5 nm; emission slits at 1.5 nm; ambient temperature. All points measured in triplicate, with ±1 SD error bars included.\n(§1) The hydrogel film (100 μm thickness, 8 mm diameter disk) was mounted in a PMMA cuvette at a 45° angle. All measurements were made at 37° C. in a Shimadzu RF-5301 spectrofluorometer with excitation at 370 nm (slit=3 nm) and emission at 430 nm (slit=3 nm) at low PMT sensitivity. Glucose and L-sodium lactate concentrations were checked using the YSI Model 2300 STAT plus glucose analyzer. Error bars are standard deviation with triplicate values for each data point.\nas §1, with “The data is plotted as the average of” for “Error bars are standard deviation with”"}, "[2]": {"assay": "Modulation of fluorescence with glucose"}, "[3]": {"assay": "Modulation of fluorescence with lactate"}, "[4]": {"assay": "Solubility", "type": "physicochemical", "conditions": "solvents in which soluble"}, "[5]": {"conditions": "aqueous association with glucose; cited from earlier work"}}}
{"molecule": "O=C(O)CCN(Cc1ccccc1B(O)O)Cc1c2ccccc2c(CN(CCC(=O)O)Cc2ccccc2B(O)O)c2ccccc12", "note": "[9,10-bis[N-(2-boronobenzyl)-N-[2-(carboxyethyl)amino]-methyl]anthracene]", "values": [{"measurement": "effect of lactate on the fluorescence modulation (at 428 nm) by glucose", "setting": "[1]", "value": "did not substantially affect"}]}
{"molecule": "CN(CCNc1ccc2c3c(cccc13)C(=O)N(CCNC(=O)c1cc(B(O)O)cc([N+](=O)[O-])c1)C2=O)Cc1ccccc1B(O)O", "note": "[Example 10, N-(3-Borono-5-nitrobenzamido)ethyl-4-(N′-aminoethylene-N″-[2-(borono)benzyl]methylamino)naphthalene-1,8-dicarboximide]", "values": [{"measurement": "normalized fluorescence emission (I/I0 at 525 nm), effect of glucose", "setting": "[2]; in MeOH/PBS (50/50 vol. %), pH 7.4, 0–50 mM glucose, excitation 430 nm (FIG. 12)", "value": "affected by the presence of glucose"}, {"measurement": "normalized fluorescence emission (I/I0 at 530 nm), effect of lactate", "setting": "[3]; in MeOH/PBS (50/50 vol. %), pH 7.4, 0–7 mM L-sodium lactate, excitation 430 nm (FIG. 13)", "value": "not by the presence of lactate"}]}
{"molecule": "C=C(C)C(=O)NCCCN(Cc1ccccc1B(O)O)Cc1c2ccccc2c(CN(CCC(=O)O)Cc2ccccc2B(O)O)c2ccccc12", "note": "[Example 12, 9-[N-(2-boronobenzyl)-N-[3-(methacrylamido)propylamino]methyl]-10-[N-(2-boronobenzyl)-N-[2-(carboxyethyl)amino]methyl]anthracene]", "values": [{"measurement": "Solubility", "setting": "[4]", "value": "PBS/methanol, methanol, ethanol, chloroform, dichloromethane"}]}
{"molecule": "C=C(C)C(=O)NCCCN(Cc1ccccc1B1OC(C)(C)C(C)(C)O1)Cc1c2ccccc2c(CN(CCC(=O)NCCCCCCNC(=O)c2c3ccccc3cc3ccccc23)Cc2ccccc2B2OC(C)(C)C(C)(C)O2)c2ccccc12", "note": "[Example 13]", "values": [{"measurement": "Solubility", "setting": "[4]", "value": "PBS/methanol, methanol, ethanol, chloroform, dichloromethane"}]}
{"molecule": "OB(O)c1ccccc1", "note": "[phenylboronic acid]", "values": [{"measurement": "Kd", "setting": "[5]", "value": 9.1, "unit": "mM"}]}
{"molecule": "N-2-[6-N-(N-4-dimethylaminobenzyl)-6-N-[2-(borono)benzyl]aminohexyl]-[2-(borono)benzyl]amino-ethyl-4-butylamino-1,8-naphthalimide [Example 5]", "values": [{"measurement": "normalized fluorescence emission (I/Io @ 535 nm), effect of glucose", "setting": "[2]; 0.015 mM in 70/30 MeOH/PBS, 0–20 mM glucose, excitation 450 nm (FIG. 5)", "value": "affected by the presence of glucose"}, {"measurement": "normalized fluorescence emission (I/Io @ 535 nm), effect of lactate", "setting": "[3]; 0.015 mM in 70/30 MeOH/PBS, 0–20 mM lactate, excitation 450 nm (FIG. 5)", "value": "not substantially affected by the presence of lactate"}]}
